The target in the assay is T1, human PKCθ full length enzyme (Homo sapiens, UniProt Q04759).
T1 construct: human PKCθ full length enzyme (Panvera Catalog No. P2996); purchased Panvera P2996
T1 sequence (Q04759 whole entry): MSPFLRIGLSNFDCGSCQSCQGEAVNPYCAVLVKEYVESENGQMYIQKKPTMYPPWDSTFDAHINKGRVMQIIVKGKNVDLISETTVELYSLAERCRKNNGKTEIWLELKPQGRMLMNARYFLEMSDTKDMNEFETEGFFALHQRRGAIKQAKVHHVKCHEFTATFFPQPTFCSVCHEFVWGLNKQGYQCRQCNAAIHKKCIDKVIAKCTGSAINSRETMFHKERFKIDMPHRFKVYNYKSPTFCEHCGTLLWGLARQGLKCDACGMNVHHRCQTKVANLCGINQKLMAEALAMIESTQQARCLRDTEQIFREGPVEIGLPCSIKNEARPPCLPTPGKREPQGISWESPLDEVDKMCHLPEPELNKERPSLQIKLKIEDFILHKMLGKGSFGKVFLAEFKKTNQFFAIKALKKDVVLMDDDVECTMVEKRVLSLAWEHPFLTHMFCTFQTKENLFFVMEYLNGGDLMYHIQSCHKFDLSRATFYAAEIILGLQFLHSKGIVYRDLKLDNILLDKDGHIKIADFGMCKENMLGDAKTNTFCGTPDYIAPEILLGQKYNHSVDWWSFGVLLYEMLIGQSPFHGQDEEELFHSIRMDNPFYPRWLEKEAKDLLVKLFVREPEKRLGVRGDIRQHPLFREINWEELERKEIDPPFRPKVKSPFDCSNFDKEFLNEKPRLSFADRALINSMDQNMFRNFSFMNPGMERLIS
In words: PKCθ IMAP Assay. In kind it is biochemical. The following applies: average value when one or more samples were tested; ATP 6 uM, PKCθ 1 nM. How it is done:
The materials used include the following: human PKCθ full length enzyme (Panvera Catalog No. P2996); substrate peptide: 5FAM-[…]-OH (Molecular Devices, RP7032); ATP (Sigma Cat # A2383); DTT (Pierce, 20291); 5× kinase reaction buffer (Molecular Devices, R7209); 5× binding buffer A (Molecular Devices, R7282), 5× binding buffer B (Molecular Devices, R7209); IMAP Beads (Molecular Devices, R7284); and 384-well plates (Corning Costar, 3710).
The reaction buffer was prepared by diluting the 5× stock reaction buffer and adding DTT to obtain a concentration of 3.0 mM. The binding buffer was prepared by diluting the 5× binding buffer A. A master mix solution was prepared using a 90% dilution of the reaction buffer containing 2×ATP (12 uM) and 2× peptide ([…]). […] The final concentration of compound was 2× and 10% DMSO. DMSO was added to the rest of the master mix to increase the concentration to 10%. 10 ul of the master mix containing 10% DMSO was added to the rest of the wells on the plate except the 2nd column. 20 ul was transferred from the first column to the 2nd column. The compounds were serially diluted in 2:1 ratio starting from the 2nd column. A 2× (2 nM) PKCθ solution was made in the reaction buffer. 10 ul of the PKCθ solution was added to every well to achieve these final concentrations: PKCθ—1 nM; ATP—6 uM; peptide—100 nM; DMSO—5%. Samples were incubated for 25 minutes at room temperature. The binding reagent was prepared by diluting the beads in 1× binding buffer to 800:1. 50 ul of the binding reagent was added to every well and incubated for 20 minutes. FP was measured using Envision2100 (PerkinElmer Life Sciences). Wells with no ATPs and wells with no enzymes were used as controls.
The term IC50 denotes the point on the concentration scale where inhibition reaches its midpoint. Regarding `Cc1c(Nc2c(C#N)cnc3sc(-c4cccc(S(=O)(=O)N(C)C)c4)cc23)ccc2[nH]ccc12` [Compound 237, 3-{5-cyano-4-[(4-methyl-1H-indol-5-yl)amino]thieno[2,3-b]pyridin-2-yl}-N,N-dimethylbenzenesulfonamide], the IC50 came out at 50 nM.

`Cc1c(Nc2c(C#N)cnc3sc(-c4ccccc4S(=O)(=O)N(C)C)cc23)ccc2[nH]ccc12` [Compound 238, 2-{5-cyano-4-[(4-methyl-1H-indol-5-yl)amino]thieno[2,3-b]pyridin-2-yl}-N,N-dimethylbenzenesulfonamide] registered an IC50 of 440 nM.

Consider `CS(=O)(=O)c1cccc(-c2cc3c(Nc4ccc5[nH]ccc5c4)c(C#N)cnc3s2)c1` [Compound 239, 4-(1H-indol-5-ylamino)-2-[3-(methylsulfonyl)phenyl]thieno[2,3-b]pyridine-5-carbonitrile], for which the IC50 stood at 1100 nM.

`Cc1c(Nc2c(C#N)cnc3sc(-c4cccc(S(N)(=O)=O)c4)cc23)ccc2[nH]ccc12` [Compound 240, 3-{5-cyano-4-[(4-methyl-1H-indol-5-yl)amino]thieno[2,3-b]pyridin-2-yl}benzenesulfonamide]: the concentration for half-maximal inhibition (IC50) was 6 nM.

Consider `Cc1c(Nc2c(C#N)cnc3sc(-c4ccc(S(N)(=O)=O)cc4)cc23)ccc2[nH]ccc12` [Compound 241, 4-{5-cyano-4-[(4-methyl-1H-indol-5-yl)amino]thieno[2,3-b]pyridin-2-yl}benzenesulfonamide], for which it took 13 nM to reach half-maximal inhibition (IC50).

`N#Cc1cnc2sc(-c3ccc(S(N)(=O)=O)cc3)cc2c1Nc1ccc2[nH]ccc2c1` [Compound 242, 4-[5-cyano-4-(1H-indol-5-ylamino)thieno[2,3-b]pyridin-2-yl]benzenesulfonamide] showed an IC50 of 380 nM.

The compound `COC(=O)c1cc2c(Nc3ccc4[nH]ccc4c3)c(C#N)cnc2s1` [Compound 246, methyl 5-cyano-4-(1H-indol-5-ylamino)thieno[2,3-b]pyridine-2-carboxylate] came in with an IC50 of 438 nM.

Compound `N#Cc1cnc2sc(C(=O)N3CCCC3)cc2c1Nc1ccc2[nH]ccc2c1` [Compound 250, 4-(1H-indol-5-ylamino)-2-(pyrrolidin-1-ylcarbonyl)thieno[2,3-b]pyridine-5-carbonitrile] registered an IC50 of 1040 nM.

Turning to `N#Cc1cnc2sc(C(=O)Nc3cccnc3)cc2c1Nc1ccc2[nH]ccc2c1` [Compound 251, 5-cyano-4-(1H-indol-5-ylamino)-N-pyridin-3-ylthieno[2,3-b]pyridine-2-carboxamide], half-maximal inhibition (IC50) required 1670 nM.

As for `N#Cc1cnc2sc(C(=O)Nc3ccncc3)cc2c1Nc1ccc2[nH]ccc2c1` [Compound 252, 5-cyano-4-(1H-indol-5-ylamino)-N-pyridin-4-ylthieno[2,3-b]pyridine-2-carboxamide], the IC50 is 959 nM.

`CN1CCN(C(=O)c2cc3c(Nc4ccc5[nH]ccc5c4)c(C#N)cnc3s2)CC1` [Compound 253, 4-(1H-indol-5-ylamino)-2-[(4-methylpiperazin-1-yl)carbonyl]thieno[2,3-b]pyridine-5-carbonitrile] had an IC50 of 2280 nM.

The compound `N#Cc1cnc2sc(C(=O)NCCO)cc2c1Nc1ccc2[nH]ccc2c1` [Compound 254, 5-cyano-N-(2-hydroxyethyl)-4-(1H-indol-5-ylamino)thieno[2,3-b]pyridine-2-carboxamide] gave an IC50 of 864 nM.

Compound `Cc1c(Nc2c(C#N)cnc3sc(C(=O)N4CCOCC4)cc23)ccc2[nH]ccc12` [Compound 255, 4-[(4-methyl-1H-indol-5-yl)amino]-2-(morpholin-4-ylcarbonyl)thieno[2,3-b]pyridine-5-carbonitrile] gave an IC50 of 276 nM.

Consider `Cc1c(Nc2c(C#N)cnc3sc(C(=O)N4CCN(C)CC4)cc23)ccc2[nH]ccc12` [Compound 256, 4-[(4-methyl-1H-indol-5-yl)amino]-2-[(4-methylpiperazin-1-yl)carbonyl]thieno[2,3-b]pyridine-5-carbonitrile], for which inhibition was half-maximal at 334 nM (IC50).

In turn, `Cc1c(Nc2c(C#N)cnc3sc(C(=O)Nc4ccncc4)cc23)ccc2[nH]ccc12` [Compound 257, 5-cyano-4-[(4-methyl-1H-indol-5-yl)amino]-N-pyridin-4-ylthieno[2,3-b]pyridine-2-carboxamide] had an IC50 of 25 nM.

For `Cc1c(Nc2c(C#N)cnc3sc(C(=O)Nc4ccccc4)cc23)ccc2[nH]ccc12` [Compound 258, 5-cyano-4-[(4-methyl-1H-indol-5-yl)amino]-N-phenylthieno[2,3-b]pyridine-2-carboxamide], 126 nM corresponded to half-maximal inhibition (IC50).

In turn, `Cc1c(Nc2c(C#N)cnc3sc(C(=O)NCc4ccccc4)cc23)ccc2[nH]ccc12` [Compound 259, N-benzyl-5-cyano-4-[(4-methyl-1H-indol-5-yl)amino]thieno[2,3-b]pyridine-2-carboxamide] displayed a half-inhibitory concentration (IC50) of 155 nM.

In the case of `Cc1c(Nc2c(C#N)cnc3sc(C(=O)NCCc4ccccc4)cc23)ccc2[nH]ccc12` [Compound 260, 5-cyano-4-[(4-methyl-1H-indol-5-yl)amino]-N-(2-phenylethyl)thieno[2,3-b]pyridine-2-carboxamide], half-maximal inhibition (IC50) required 187 nM.

`Cc1c(Nc2c(C#N)cnc3sc(C(=O)N(C)C)cc23)ccc2[nH]ccc12` [Compound 261, 5-cyano-N,N-dimethyl-4-[(4-methyl-1H-indol-5-yl)amino]thieno[2,3-b]pyridine-2-carboxamide]: it took 222 nM to reach half-maximal inhibition (IC50).

For the compound `COCCNC(=O)c1cc2c(Nc3ccc4[nH]ccc4c3C)c(C#N)cnc2s1` [Compound 262, 5-cyano-N-(2-methoxyethyl)-4-[(4-methyl-1H-indol-5-yl)amino]thieno[2,3-b]pyridine-2-carboxamide], the midpoint of inhibition, the IC50, lay at 92 nM.

The compound `Cc1c(Nc2c(C#N)cnc3sc(C(=O)Nc4cccnc4)cc23)ccc2[nH]ccc12` [Compound 263, 5-cyano-4-[(4-methyl-1H-indol-5-yl)amino]-N-pyridin-3-ylthieno[2,3-b]pyridine-2-carboxamide] returned an IC50 of 71 nM.

Consider `N#Cc1cnc2sc(C(=O)N3CCCC3)cc2c1Nc1cccc2[nH]ccc12` [Compound 264, 4-(1H-indol-4-ylamino)-2-(pyrrolidin-1-ylcarbonyl)thieno[2,3-b]pyridine-5-carbonitrile], for which the IC50 amounted to 669 nM.

With `Cc1c(Nc2c(C#N)cnc3sc(C(=O)N4CCNCC4)cc23)ccc2[nH]ccc12` [Compound 265, 4-[(4-methyl-1H-indol-5-yl)amino]-2-(piperazin-1-ylcarbonyl)thieno[2,3-b]pyridine-5-carbonitrile], the 50% inhibitory concentration (IC50) worked out at 232 nM.

Compound `Cc1c(Nc2c(C#N)cnc3sc(C(=O)NC4CCNCC4)cc23)ccc2[nH]ccc12` [Compound 266, 5-cyano-4-[(4-methyl-1H-indol-5-yl)amino]-N-piperidin-4-ylthieno[2,3-b]pyridine-2-carboxamide] came in with an IC50 of 44 nM.

`N#Cc1cnc2sc(CN3CCc4ccccc4C3)cc2c1Nc1ccc2[nH]ccc2c1` [Compound 268, 2-(3,4-dihydroisoquinolin-2(1H)-ylmethyl)-4-(1H-indol-5-ylamino)thieno[2,3-b]pyridine-5-carbonitrile] gave an IC50 of 1250 nM.

Regarding `N#Cc1cnc2sc(CN3CCN(c4ccccc4)CC3)cc2c1Nc1ccc2[nH]ccc2c1` [Compound 269, 4-(1H-indol-5-ylamino)-2-[(4-phenylpiperazin-1-yl)methyl]thieno[2,3-b]pyridine-5-carbonitrile], inhibition was half-maximal at 4030 nM (IC50).

For `C=C/C=C/c1cc2c(Nc3ccc4[nH]ccc4c3)c(C#N)cnc2s1` [Compound 270, 2-[(1E)-buta-1,3-dien-1-yl]-4-(1H-indol-5-ylamino)thieno[2,3-b]pyridine-5-carbonitrile], it took 201 nM to reach half-maximal inhibition (IC50).

In the case of `Cc1c(Nc2c(C#N)cnc3sc(/C=C/CCN4CCN(C)CC4)cc23)ccc2[nH]ccc12` [Compound 272, 4-[(4-methyl-1H-indol-5-yl)amino]-2-[(1E)-4-(4-methylpiperazin-1-yl)but-1-en-1-yl]thieno[2,3-b]pyridine-5-carbonitrile], the IC50 was found to be 45 nM.

`Cc1c(Nc2c(C#N)cnc3sc(/C=C/CN4CCOCC4)cc23)ccc2[nH]ccc12` [Compound 275, 4-[(4-methyl-1H-indol-5-yl)amino]-2-[(1E)-3-morpholin-4-ylprop-1-en-1-yl]thieno[2,3-b]pyridine-5-carbonitrile] came in with an IC50 of 56 nM.

For the compound `Cc1c(Nc2c(C#N)cnc3sc(/C=C/CN4CCCC4)cc23)ccc2[nH]ccc12` [Compound 276, 4-[(4-methyl-1H-indol-5-yl)amino]-2-[(1E)-3-pyrrolidin-1-ylprop-1-en-1-yl]thieno[2,3-b]pyridine-5-carbonitrile], the IC50 was 23 nM.

Turning to `CN1CCN(C/C=C/c2cc3c(Nc4ccc5[nH]ccc5c4)c(C#N)cnc3s2)CC1` [Compound 277, 4-(1H-indol-5-ylamino)-2-[(1E)-3-(4-methylpiperazin-1-yl)prop-1-en-1-yl]thieno[2,3-b]pyridine-5-carbonitrile], the IC50 amounted to 304 nM.

The values are drawn from patent US20070082880A1 (priority 2005, published 2007).
